Measured values taken from US7226783B1, “Vanillin production” (David Michael & Co., Inc., priority 1997, dated 2007).

What was measured:
Vanilla embryo culture = assay: Feeding vanilla embryo culture with vanillin precursors, HPLC analysis of metabolites; format: cell-based, Vanilla planifolia
Source text: We derived a scheme for the vanillin biosynthetic pathway by analysis of metabolites in cultured embryos and by experiments with feeding of precursors and intermediates. This scheme is shown in FIG. 1 and the experiments are described below.
Embryo cultures of Vanilla planifolia were established as described in Example 1. The procedures used to extract phenolics from the cultured embryo cells and to analyze the extracts by high pressure liquid chromatography (HPLC) were as described generally by Havkin-Frenkel et al., Plant Cell, Tissue and Organ Culture 45: 133–136 (1996).
In the extraction procedure, 3 ml of 0.05 M sodium acetate buffer, pH 5.5, was added to about 1 gram of fresh culture. Samples were placed in boiling water for three minutes, then chilled. The cells were next homogenized in a Polytron blender for 1 minute at medium speed. A β-glucosidase solution was added to the homogenized cells to give a final concentration of 0.2%. Each sample was then incubated at 37° C. for 5 hr. Next, 17 ml of 95% ethanol was added, after which incubation at 37° C. was continued for an additional 24 hrs. The extract was then filtered and the ethanol evaporated. The filtrate was extracted twice using ethyl acetate, then extracted twice with ethyl acetate acidified to pH 3 with HCl. The extracts were combined and the ethyl acetate evaporated. The residue was dissolved in 1 ml of acidified methanol and filtered with a 0.45 μm syringe filter for HPLC analysis.
Extractions of metabolites from culture medium was similar to the cell extraction protocol. Five ml of spent medium was incubated in a β-glucosidase solution at 37° C. for 24 hrs. The medium was then extracted with ethyl acetate and the organic portions combined and evaporated, as for the cell extracts.
Metabolite levels were measured with a Hewlett Packard 1090L or a Waters HPLC with a UV detector at 280 nm. The Waters HPLC was also equipped with a diode array detector to confirm the identities of the various intermediates, and the identities of the various intermediates were further confirmed by mass spectrometry. The column was a Supelco C-18 DB column of dimensions 250 mm×4.6 mm and a particle size of 5 μm. The mobile phase contained methanol and water, each of which was acidified with 1.25% acetic acid. The flow rate was 1 ml/min, with a solvent gradient as follows: […]
Results of selected experiments in which precursors or elicitors were added to vanilla cultures are set forth below. These experiments were performed in accordance with the procedures set forth in Examples 1–4.

[1] = tested on: alcohol dehydrogenase from Vanilla planifolia embryo culture (vanillyl alcohol dehydrogenase, VAD); assay: Substrate specificity of vanillyl alcohol dehydrogenase (VAD); format: biochemical; conditions: for Activity with the compound as substrate, NADH: cofactor NADH; for Activity with the compound as substrate, NADPH: cofactor NADPH
Procedure: We have purified and characterized the activity of VAD that catalyze the reduction of vanillin to vanillyl alcohol. The enzyme was identified as an NADH or NADPH-dependent alcohol dehydrogenase. The purification protocol was as set forth below.
Crude enzyme extract: Tissue was homogenized in 0.05 M actetate-Na buffer pH 4.0 (in proportion, 1 g of the tissue and 5 ml of the buffer) in an ice bath, using Polytrone homogenizer, at 20,000 revolutions of the blade per min. The homogenate was centrifuged at 13000 g for 15 min at 4° C. and the supernatant served as the crude enzyme source.
Ammonium sulfate fractionation and molecular sieving: Crude enzyme extract (100 ml) was supplied with ammonium sulfate in an ice bath up to 60% of saturation (44.4 g of Ammonium sulphate per 100 ml). The precipitate was centrifuged and discarded. The supernatant was supplied with ammonium sulfate up to 90% of saturation (total 64.6 g per 100 ml of crude extract). The precipitate was collected (10 min centrifugation at 10,000 g), dissolved in 7 ml of extraction buffer and subjected to molecular sieving at Sephacryl S-300 High Load Column (LKB Pharmacia) 2.6×60 cm, in 0.1 M pH 4.0 acetate-Na buffer. The flow rate was adjusted to 1 ml/min and 5 ml fractions were collected. The protein elution profile was monitored at 280 nm. Five fractions (of a total of 50) containing dehydrogenase activity (130–155 ml of the column eluate) were collected.
The column was developed with 0.5 M Tris/HCL buffer pH 7.4 in 0.0–1.0 M NaCl gradient (total gradient volume—70 ml) and 2.5 ml fractions were collected. Vanillyl alcohol dehydrogenase was released from the column between 0.3–0.4 M NaCl. Fractions containing VAD activity were dialysed overnight against 0.05 M caetate-Na buffer pH 4.0 and concentrated up to 50 times using Minicon concentrating filters (Amicon). […]

[2] = tested on: V. planifolia tissue culture; assay: Bio-conversion of 3,4-dihydroxybenzaldehyde to vanillin and vanillyl alcohol in tissue culture; format: cell-based, Vanilla planifolia; conditions: addition of 1–5 mM pro-ald
Procedure: The following procedure was used for the bio-conversion of 3,4-dihydroxybenzaldehyde (“proaldehyde”) to vanillin and vanillyl alcohol in V. planifolia tissue culture. The medium used for cultures was G-medium as described above. Pro-ald solutions were prepared in G-medium, to final concentrations of 0.01 to 5 mM.
Cultures used for the bio-conversion were (1) clusters, (2) embryo culture, and (3) tissue homogenates of the above cultures. Cultures were of varying ages ranging from 0 to 1 month old. The cultures were allowed to remain under normal culture conditions for 0 to 15 days. As controls, untreated cultures were extracted and analyzed as described in Example 2.
Proaldehyde at different concentrations was added to the medium, either alone or in combination with the following treatments:
Bioreactor-grown cultures were used for the bio-conversions. Different kinds of impeller designs were used to increase or decrease shear stress on the cells prior to the addition of pro-ald.

[3] = tested on: V. planifolia embryo culture; assay: Uptake of exogenously added vanillin and transformation to vanillyl alcohol in embryo culture; format: cell-based, Vanilla planifolia
Source text: FIG. 3. Graph showing uptake of exogenously added vanillin and its transformation to vanillyl alcohol by vanillyl alcohol dehydrogenase in V. planifolia embryo culture. V(T)=vanillin in tissue; V(M)=vanillin in medium; VAL(T)=vanillyl alcohol in tissue; VAL(M)=vanillyl alcohol in medium.
Similarly, vanilla embryo culture that can be elicited by various elicitors to produce vanillin accumulates vanillyl alcohol as a final product. It is important to state at this stage that all the intermediates in the pathway are found mainly as glucosides.

Compound | fate of exogenously fed compound in cultured embryos (Vanilla embryo culture; feeding experiments, Example 2) | CA (p-coumaric acid) content of culture (Vanilla embryo culture; precursor fed at 1 mM) [mg/100 g dry wt.] | HBA (p-hydroxybenzyl alcohol) content of culture (Vanilla embryo culture; precursor fed at 1 mM) [mg/100 g dry wt.] | PRO-ALD (3,4-dihydroxybenzaldehyde) content of culture (Vanilla embryo culture; precursor fed at 1 mM) [mg/100 g dry wt.] | VN (vanillin) content of culture (Vanilla embryo culture; precursor fed at 1 mM) [mg/100 g dry wt.] | VN ALC (vanillyl alcohol) content of culture (Vanilla embryo culture; precursor fed at 1 mM) [mg/100 g dry wt.] | substrate preference of VAD [1] | Activity with the compound as substrate, NADH [1] [nmoles · gfwt^−1 · min^−1] | Activity with the compound as substrate, NADPH [1] [nmoles · gfwt^−1 · min^−1] | increase of production of vanillin/vanillyl alcohol [2] | fate of compound applied to the growing medium of embryo culture [3]
O=Cc1ccc(O)c(O)c1 [PRO-ALD, 3,4-dihydroxybenzaldehyde] | rapid methylation and conversion to vanillin or vanillyl alcohol | 285 | 8950 | 433 | 16.7 | 286.8 | most preferred substrates | 1.89 | 2.11 | several hundred fold | accumulation of vannilyl alcohol
COc1cc(C=O)ccc1O [Vn, vanillin] |  |  |  |  |  |  | most preferred substrates | 1.26 | 0.97 |  | rapid uptake and reduction of the applied compound to vanillyl alcohol
